According to publication PMC3199943, “Screening the MayBridge Rule of 3 Fragment Library for Compounds That Interact with the Trypanosoma brucei myo-Inositol-3-Phosphate Synthase and/or Show Trypanocidal Activity” (Molecular Biology International, 2011):
Like-named read-outs stand apart in the source and are kept apart here.

Key:
TbINO1 = biological target: T1, TbINO1 (Trypanosoma brucei brucei, UniProt Q5QQ46); assay: biochemical; type: binding; conditions: for Tb Ino1 Tm Shift [˚C]: Supplementary Table 1, compound 1mM, mean ± SD from Boltzman curve fitting
T1 sequence (Q5QQ46 1-528): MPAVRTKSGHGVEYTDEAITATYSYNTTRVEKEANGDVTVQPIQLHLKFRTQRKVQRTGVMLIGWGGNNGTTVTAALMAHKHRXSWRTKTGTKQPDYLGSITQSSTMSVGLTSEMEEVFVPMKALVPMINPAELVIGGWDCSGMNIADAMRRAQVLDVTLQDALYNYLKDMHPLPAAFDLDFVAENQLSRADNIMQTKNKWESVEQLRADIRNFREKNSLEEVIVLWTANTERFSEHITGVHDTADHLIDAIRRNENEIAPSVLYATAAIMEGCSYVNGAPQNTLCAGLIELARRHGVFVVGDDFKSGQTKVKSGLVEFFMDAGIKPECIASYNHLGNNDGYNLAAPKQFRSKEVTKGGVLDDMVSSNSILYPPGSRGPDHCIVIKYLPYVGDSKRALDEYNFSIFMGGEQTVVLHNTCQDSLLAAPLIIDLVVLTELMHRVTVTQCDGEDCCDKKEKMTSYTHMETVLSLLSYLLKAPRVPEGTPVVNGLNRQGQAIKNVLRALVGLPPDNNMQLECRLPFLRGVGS

A549 cells = assay: Cytotoxicity against A549 cells, Alamar Blue; type: cell-based; conditions: Supplementary Table 1, compound 0.5 mM, percentage of controls (n=1); for viability at 500 µM: Homo sapiens, A549, 65 h
Procedure, shortened: (§1)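 HeLa and A549 cells grown in DMEM with 10% FCS and 2 mM L-Glutamine were seeded at 2 × 10^4 cells/well. They were exposed to compounds for ~65 hours, then Alamar Blue was added for a further 5 hours to measure viability.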

HeLa cells = assay: cells; conditions: for viability at 500 µM: 65 h; for HeLa Cells Alamar Blue: Supplementary Table 1, compound 0.5 mM, percentage of controls, mean ± SD (n=3) or SE (n=2)
Procedure, shortened: as §1

[1] = read-out: Tb Ino1 Tm Shift [˚C]
[2] = Homo sapiens, HeLa, read-out: HeLa Cells Alamar Blue
[3] = Homo sapiens, HeLa, read-out: HeLa Cells Alamar Blue (% survival)

SMILES	ΔTm at 1000 µM (TbINO1; [1]) [°C]	viability at 500 µM (A549 cells) [%]	viability at 500 µM (HeLa cells; [2]) [%]	also measured
OCc1cccnc1N1CCCCC1 [compound 572, (2‐piperidino‐3‐pyridinyl)methanol]	1.25 ± 0.09	80.1	65.1 ± 5.7	
COc1c(C(=O)O)csc1Cl [compound 575, 5‐chloro‐4‐methoxythiophene‐3‐carboxylic acid]				Tb Ino1 Tm Shift [˚C] (TbINO1): 1.07 ± 0.08 °C; A549 Cells Alamar Blue (A549 cells): 91.2 percentage of controls; HeLa Cells Alamar Blue (HeLa cells): 90.5 ± 15.4 percentage of controls
O=C(O)c1sccc1-n1cccc1 [compound 577, 3-(1H-pyrrol-1-yl)thiophene-2-carboxylic acid]		90.4	103 ± 2.8	ΔTm at 1000 µM (TbINO1; read-out: TbIno1 Tm shift [°C]): 2.78 ± 0.08 °C; viability at 500 µM (HeLa cells; [3]): 103 ± 2.8%; CC50 (HeLa cells; Homo sapiens, HeLa, read-out: HeLa ED50): > 20 mM
OCc1ccc(N2CCOCC2)cc1 [compound 578, (4‐morpholin‐4‐yl‐phenyl)‐methanol]	0.17 ± 0.08	75.4	42.3 ± 9	
OCc1cccc(N2CCOCC2)c1 [compound 579, (3‐morpholinophenyl)methanol]	0.18 ± 0.08	101	100 ± 13.5	
OCc1ccccc1N1CCOCC1 [compound 580, (2‐morpholinophenyl)methanol]	0.34 ± 0.06	123	91.3 ± 16	
CN1CCc2c(sc(N)c2C#N)C1 [compound 581, 2‐amino‐6‐methyl‐4,5,6,7‐tetrahydrothieno[2,3‐c]pyridine‐3‐carbonitrile]				Tb Ino1 Tm Shift [˚C] (TbINO1): 1.39 ± 0.08 °C; A549 Cells Alamar Blue (A549 cells): 82.2 percentage of controls; HeLa Cells Alamar Blue (HeLa cells): 85.8 ± 12.8 percentage of controls
Cc1cc(C(=O)O)c(C(F)(F)F)o1 [compound 583, 5‐methyl‐2‐(trifluoromethyl)‐3‐furoic acid]	0.06 ± 0.07	59.6	86.1 ± 15.8	
Cn1nc(-c2cccs2)cc1CO [compound 587, (1‐methyl‐3‐thien‐2‐yl‐1H‐pyrazol‐5‐yl)methanol]				Tb Ino1 Tm Shift [˚C] (TbINO1): 0.36 ± 0.07 °C; A549 Cells Alamar Blue (A549 cells): 65.8 percentage of controls; HeLa Cells Alamar Blue (HeLa cells): 91.6 ± 8.8 percentage of controls
CC(=O)c1cc(Cl)sc1Cl [compound 590, 1‐(2,5‐dichloro‐3‐thienyl)ethan‐1‐one]	0.3 ± 0.07	130	97.7 ± 13.9	
NC(=S)c1cccc2c1OCCO2 [compound 592, 2,3‐dihydro‐1,4‐benzodioxine‐5‐carbothioamide]				Tb Ino1 Tm Shift [˚C] (TbINO1): 0.18 ± 0.07 °C; A549 Cells Alamar Blue (A549 cells): 39.8 percentage of controls; HeLa Cells Alamar Blue (HeLa cells): 54.3 ± 15.7 percentage of controls
CN(C)CCOc1ccccc1CO [compound 593, {2‐[2‐(dimethylamino)ethoxy]phenyl}methanol]				Tb Ino1 Tm Shift [˚C] (TbINO1): 0.13 ± 0.06 °C; A549 Cells Alamar Blue (A549 cells): 59.2 percentage of controls; HeLa Cells Alamar Blue (HeLa cells): 77.9 ± 13.5 percentage of controls
CCOC(=O)c1[nH]c(C)c(CC)c1C [compound 594, ethyl 4‐ethyl‐3,5‐dimethyl‐1H‐pyrrole‐2‐carboxylate]				Tb Ino1 Tm Shift [˚C] (TbINO1): 0.17 ± 0.08 °C; A549 Cells Alamar Blue (A549 cells): 59.9 percentage of controls; HeLa Cells Alamar Blue (HeLa cells): 79.8 ± 6.6 percentage of controls
N#Cc1ccc(Oc2ccccn2)cc1 [compound 596, 4‐(pyridin‐2‐yloxy)benzonitrile]	0.68 ± 0.07	72.1	97.7 ± 11	
O=C(O)C12CC3CC(CC(O)(C3)C1)C2 [compound 597, 3‐hydroxyadamantane‐1‐carboxylic acid]	0.29 ± 0.06	79.4	75.2 ± 12.6	
OCc1ccc(-c2cccs2)s1 [compound 598, 2,2′-bithien-5-ylmethanol]		86.3	78 ± 11.6	ΔTm at 1000 µM (TbINO1; read-out: TbIno1 Tm shift [°C]): 1.72 ± 0.06 °C; viability at 500 µM (HeLa cells; [3]): 78 ± 11.6%
NCc1csc(-c2cccs2)n1 [compound 599, [2‐(2‐thienyl)‐1,3‐thiazol‐4‐yl]methylamine]				Tb Ino1 Tm Shift [˚C] (TbINO1): 0.41 ± 0.06 °C; A549 Cells Alamar Blue (A549 cells): 98.4 percentage of controls; HeLa Cells Alamar Blue (HeLa cells): 71.9 ± 7.1 percentage of controls
O=C(O)c1nsc(Cl)c1Cl [compound 602, 4,5‐dichloroisothiazole‐3‐carboxylic acid]	0.1 ± 0.07	68.2	83.2 ± 12.5	
CC(=O)c1ccc(S(C)(=O)=O)cc1 [compound 604, 1‐[4‐(methylsulfonyl)phenyl]ethan‐1‐one]	0.18 ± 0.06	63.9	83.1 ± 19.6	
CNCc1cccc(-c2ccncc2)c1 [compound 605, N‐methyl‐N‐(3‐pyridin‐4‐ylbenzyl)amine]	0.05 ± 0.07	36.2	21.3 ± 13.8	
O=C1CCSc2ccc(Cl)cc21 [compound 609, 6-chloro-3,4-dihydro-2H-1-benzothiin-4-one]		105	74.5 ± 13.7	ΔTm at 1000 µM (TbINO1; read-out: TbIno1 Tm shift [°C]): 2.49 ± 0.04 °C; viability at 500 µM (HeLa cells; [3]): 74.5 ± 13.7%

Further lines, with some results ahead:

ΔTm at 1000 µM (TbINO1; [1]) [°C]	SMILES	viability at 500 µM (A549 cells) [%]	viability at 500 µM (HeLa cells; [2]) [%]	also measured
0.11 ± 0.07	c1ccc(Sc2ccsc2)cc1 [compound 574, 3‐(phenylthio)thiophene]	93.9	98.8 ± 18.5	
0.24 ± 0.06	N#Cc1ccccc1Oc1ccccc1 [compound 591, 2‐phenoxybenzonitrile]	58.3	93 ± 2.5	
0.62 ± 0.05	O=c1c2ccccc2oc2ncccc12 [compound 600, 5H‐chromeno[2,3‐b]pyridin‐5‐one]	126	78.4 ± 11	
0.21 ± 0.06	Nc1cccc(C(=O)c2ccccc2)c1 [compound 601, (3‐aminophenyl)(phenyl)methanone]	63.8	89.2 ± 6.6	
0.32 ± 0.07	O=C(Nc1ccncc1)c1ccccc1 [compound 603, N1‐(4‐pyridyl)benzamide]	57.3	79 ± 15.1	
0.07 ± 0.08	CNCc1cccc(-c2cccnc2)c1 [compound 606, N‐methyl‐N‐(3‐pyridin‐3‐ylbenzyl)amine]	69.8	70.8 ± 5.8	
0.02 ± 0.06	CNCc1ccc(-c2ccccn2)cc1 [compound 607, N‐methyl‐N‐(4‐pyridin‐2‐ylbenzyl)amine]	71.5	57.7 ± 17.1	
0.46 ± 0.06	O=C(O)c1ccc(-c2ccccc2)nc1 [compound 610, 6‐phenylnicotinic acid]	125	82.3 ± 8.2	
0.19 ± 0.07	O=C(O)c1cccc(-c2ccccn2)c1 [compound 611, 3‐pyrid‐2‐ylbenzoic acid]	73.9	87 ± 12.6	
0.14 ± 0.07	O=C(O)c1ccccc1-c1cccnc1 [compound 613, 2‐pyrid‐3‐ylbenzoic acid]	59.8	80 ± 5.6	
0.46 ± 0.12	O=C(O)c1cccc(-c2ccncc2)c1 [compound 614, 3‐pyrid‐4‐ylbenzoic acid]	66.3	81.2 ± 15.9	
1.28 ± 0.09	O=C(O)c1cncc(-c2ccccc2)c1 [compound 615, 5‐phenylnicotinic acid]	75.6	80.4 ± 11.7	
